According to patent US7071182B2, “Antagonists of melanin concentrating hormone effects on the melanin concentrating hormone receptor” (Abbott Laboratories, priority 2003, dated 2006):

Experiment: Pharmacokinetic drug levels in whole brain after 10 mpk oral dose in DIO mice
Type: in vivo
Conditions: harvested 0.5-24 h after the dose

Brain Conc. AUC: 1428 ng·h/g
SMILES: O=C(Nc1ccc(Oc2ccccc2)cc1)Nc1ccc2c(cnn2CCN2CCCC2)c1 [Example 24, N-(4-phenoxyphenyl)-N′-[1-(2-pyrrolidin-1-ylethyl)-1H-indazol-5-yl]urea]
